Assay results from ChEMBL document CHEMBL1201862, “PubChem BioAssay data set” (2004).
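Compound exposure: 48 hours, 5 concentrations, 96-well plates. The concentration for 50% growth inhibition is given as GI50.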 Activity calls are given as the source filed them. Rule as the data show it: active = GI50 up to about 1.1 µM and inactive = higher.

Experiments:
Test in all cases: NCI tumour cell line growth inhibition, 48 h
CAKI-1 = test system: CAKI-1
U-251 = test system: U-251
Malme-3M = test system: Malme-3M
PC-3 = test system: PC-3
NCI-H23 = test system: NCI-H23
SF-295 = test system: SF-295
A549 = test system: A549
SNB-19 = test system: SNB-19
SNB-75 = test system: SNB-75
SK-OV-3 = test system: SK-OV-3
NCI-H522 = test system: NCI-H522
SK-MEL-2 = test system: SK-MEL-2
HCT-15 = test system: HCT-15
COLO 205 = test system: COLO 205
RPMI-8226 = test system: RPMI-8226
HCT-116 = test system: HCT-116
SF-268 = test system: SF-268
NCI-H460 = test system: NCI-H460
MCF7 = test system: MCF7
HCC 2998 = test system: HCC 2998

`CC(=O)C(=N\Nc1ccc(Cl)cc1)/C(C)=N/c1ccc(C)cc1` was tested, and the GI50 (CAKI-1) was 49.3 µM (inactive), the GI50 (U-251) was 31.6 µM (inactive) and the GI50 (Malme-3M) was 20.7 µM (inactive). For the same compound, the GI50 (PC-3) was 28.6 µM (inactive), the GI50 (NCI-H23) was 38.1 µM (inactive) and the GI50 (SF-295) was 32.4 µM (inactive). For the same compound, the GI50 (A549) was 29.3 µM (inactive), the GI50 (SNB-19) was 63.1 µM (inactive) and the GI50 (SNB-75) was 44 µM (inactive). For the same compound, the GI50 (SK-OV-3) was 46 µM (inactive), the GI50 (NCI-H522) was 19.7 µM (inactive) and the GI50 (SK-MEL-2) was 18.4 µM (inactive). The GI50 (HCT-15) was 45.6 µM, the GI50 (COLO 205) was 21.3 µM (inactive) and the GI50 (RPMI-8226) was 18.7 µM (inactive). For the same compound, the GI50 (HCT-116) was 36.8 µM (inactive) and the GI50 (SF-268) was 35.6 µM (inactive).

For `O=C(O)CCCc1nc2c(n1Cc1ccccc1)C(=O)c1ccccc1C2=O`, the GI50 (CAKI-1) was > 100 µM (inactive), the GI50 (U-251) was 54.6 µM (inactive) and the GI50 (NCI-H460) was 34.8 µM (inactive). For the same compound, the GI50 (Malme-3M) was 15.7 µM (inactive), the GI50 (NCI-H23) was 31.6 µM (inactive) and the GI50 (SF-295) was 25.8 µM (inactive). For the same compound, the GI50 (A549) was 30.8 µM (inactive), the GI50 (SNB-19) was > 100 µM (inactive) and the GI50 (SNB-75) was > 10 µM (inactive). For the same compound, the GI50 (SK-OV-3) was > 100 µM (inactive), the GI50 (NCI-H522) was 29.4 µM (inactive) and the GI50 (SK-MEL-2) was 14.9 µM (inactive). The GI50 (HCT-15) was 52.4 µM, the GI50 (COLO 205) was 34.2 µM (inactive) and the GI50 (RPMI-8226) was 18.7 µM (inactive). For the same compound, the GI50 (HCT-116) was 28.6 µM (inactive), the GI50 (SF-268) was 26.1 µM (inactive) and the GI50 (MCF7) was 29.6 µM (inactive). The GI50 (HCC 2998) was 56.2 µM (inactive).

`COC(=O)C[C@](O)(CCC(C)(C)O)C(=O)O[C@@H]1C(OC)=C[C@]23CCCN2CCc2cc4c(cc2[C@H]13)OCO4` [HARRINGTONINE] was tested, and the GI50 (CAKI-1) was 0.193 µM (active), the GI50 (U-251) was 0.0515 µM (active) and the GI50 (NCI-H460) was < 0.0182 µM (active). For the same compound, the GI50 (Malme-3M) was 0.0284 µM (active), the GI50 (NCI-H23) was 0.0863 µM (active) and the GI50 (SF-295) was 0.186 µM (active). The GI50 (A549) was 0.0579 µM (active), the GI50 (SNB-19) was 0.0509 µM (active) and the GI50 (SNB-75) was 0.209 µM (active). For the same compound, the GI50 (SK-OV-3) was 0.0984 µM (active), the GI50 (NCI-H522) was 0.0206 µM (active) and the GI50 (SK-MEL-2) was 0.0989 µM (active). The GI50 (HCT-15) was 0.379 µM, the GI50 (COLO 205) was 0.0977 µM (active) and the GI50 (RPMI-8226) was 0.0566 µM (active). For the same compound, the GI50 (HCT-116) was 0.0336 µM (active), the GI50 (SF-268) was 0.148 µM (active) and the GI50 (MCF7) was 0.0288 µM (active). The GI50 (HCC 2998) was 0.0239 µM (active).

With `COC(=O)C(=O)C(C(=O)C(=O)Nc1ccc(Cl)cc1C)c1nc2ccc(C(=O)c3ccccc3)cc2nc1O` (stereo not given) the GI50 (CAKI-1) was 68.4 µM (inactive), the GI50 (U-251) was > 100 µM (inactive) and the GI50 (NCI-H460) was > 100 µM (inactive). The GI50 (Malme-3M) was > 100 µM (inactive), the GI50 (NCI-H23) was > 100 µM (inactive) and the GI50 (SF-295) was > 100 µM (inactive). For the same compound, the GI50 (A549) was > 100 µM (inactive), the GI50 (SNB-19) was > 100 µM (inactive) and the GI50 (SNB-75) was 31.5 µM (inactive). The GI50 (SK-OV-3) was > 100 µM (inactive), the GI50 (NCI-H522) was 37 µM (inactive) and the GI50 (SK-MEL-2) was > 100 µM (inactive). For the same compound, the GI50 (HCT-15) was > 100 µM, the GI50 (COLO 205) was > 100 µM (inactive) and the GI50 (RPMI-8226) was > 100 µM (inactive). The GI50 (HCT-116) was > 100 µM (inactive), the GI50 (SF-268) was > 100 µM (inactive) and the GI50 (HCC 2998) was 98.9 µM (inactive).

For `CC(C)(C)NNC(=O)/C(=C/c1ccc(Oc2ccc(Cl)c(Cl)c2)cc1)NC(=O)c1ccccc1`, the GI50 (CAKI-1) was > 100 µM (inactive), the GI50 (U-251) was > 100 µM (inactive) and the GI50 (NCI-H460) was 40.6 µM (inactive). The GI50 (Malme-3M) was > 100 µM (inactive), the GI50 (NCI-H23) was > 100 µM (inactive) and the GI50 (SF-295) was > 100 µM (inactive). The GI50 (A549) was > 100 µM (inactive), the GI50 (SNB-19) was > 100 µM (inactive) and the GI50 (SNB-75) was > 100 µM (inactive). The GI50 (SK-OV-3) was > 100 µM (inactive), the GI50 (NCI-H522) was > 100 µM (inactive) and the GI50 (SK-MEL-2) was > 100 µM (inactive). The GI50 (HCT-15) was > 100 µM, the GI50 (COLO 205) was 16.2 µM (inactive) and the GI50 (RPMI-8226) was 22.1 µM (inactive). The GI50 (HCT-116) was > 100 µM (inactive), the GI50 (SF-268) was > 100 µM (inactive) and the GI50 (HCC 2998) was > 100 µM (inactive).

In the case of `COC1OCC(O)C(NC(=O)N(C)N=O)C1O` (stereo not given), the GI50 (CAKI-1) is reported as > 100 µM (inactive), the GI50 (U-251) is reported as > 100 µM (inactive) and the GI50 (NCI-H460) is reported as > 100 µM (inactive). The GI50 (Malme-3M) was > 100 µM (inactive), the GI50 (NCI-H23) was > 100 µM (inactive) and the GI50 (SF-295) was > 100 µM (inactive). The GI50 (A549) was > 100 µM (inactive), the GI50 (SNB-19) was > 100 µM (inactive) and the GI50 (SNB-75) was > 100 µM (inactive). The GI50 (SK-OV-3) was > 100 µM (inactive), the GI50 (NCI-H522) was > 100 µM (inactive) and the GI50 (SK-MEL-2) was > 100 µM (inactive). For the same compound, the GI50 (HCT-15) was > 100 µM, the GI50 (COLO 205) was > 100 µM (inactive) and the GI50 (RPMI-8226) was > 100 µM (inactive). For the same compound, the GI50 (HCT-116) was > 100 µM (inactive), the GI50 (SF-268) was > 100 µM (inactive) and the GI50 (MCF7) was > 100 µM (inactive). The GI50 (HCC 2998) was > 100 µM (inactive).
